Experimental data as given in patent US6991794B1, “Progenitor cell preservation factors and methods for and products of their use” (ImClone Systems Incorporated, priority 1997, dated 2006).

Key:
Dl-FRIL = target: T1, Dl-FRIL (Lablab purpureus, UniProt Q9ZTA9); conditions: Mo et al., Glycobiology 1999; cited from earlier work
T1 sequence (Q9ZTA9 9-272): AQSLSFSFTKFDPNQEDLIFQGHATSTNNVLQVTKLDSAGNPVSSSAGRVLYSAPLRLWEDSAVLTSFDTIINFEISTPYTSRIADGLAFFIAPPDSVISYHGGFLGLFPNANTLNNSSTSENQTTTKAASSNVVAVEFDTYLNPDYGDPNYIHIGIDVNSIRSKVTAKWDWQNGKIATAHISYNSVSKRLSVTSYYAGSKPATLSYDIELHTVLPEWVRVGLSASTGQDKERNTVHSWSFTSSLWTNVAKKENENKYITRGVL
T1 sequence (Q9ZTA9 125-272 limits assumed): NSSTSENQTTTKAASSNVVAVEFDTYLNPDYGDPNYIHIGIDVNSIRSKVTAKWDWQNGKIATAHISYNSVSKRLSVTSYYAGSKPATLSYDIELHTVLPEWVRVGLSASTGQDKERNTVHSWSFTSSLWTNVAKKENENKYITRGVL

[1] = single dose 150 mg/kg (Lerner and Harrison); cited from earlier work
[2] = murine 5-FU chemoprotection model; conditions: 150 mg/kg intraperitoneally
Protocol: Administration of a second dose of 5-FU (also at 150 mg/kg) 3-7 days after the initial dose killed those stem cells and progenitors recruited into S-phase in response to the first treatment of 5-FU (Lerner and Harrison, supra).
Since FRIL and cytokines act on progenitors in the same concentration range (ng/ml), this pretreatment dose regimen was used to test whether Dl-FRIL can protect mice from 5-FU administered at 2 intervals in the first week: 5-FU (150 mg/kg) was injected at day 0 and then a second dose (also at 150 mg/kg) was injected either on day 3 (d0/3 dose interval) or day 5 (d0/5 dose interval).
Weight-matched BALB/c mice (10 mice/group) were injected intravenously with either with 0.2 mL of Dl-FRIL (500 mg/mL) or 0.2 mL of HBSS daily for 4 days. Two hours after the final treatment of Dl-FRIL, mice were injected intraperitoneally with 5-FU (150 mg/kg). Groups of mice received a second dose of 5-FU (150 mg/kg) at either day 3 or day 5.

[3] = target: T2, full-length human Fms receptor (Homo sapiens, UniProt P07333); assay: Fms 3T3 biological screening assay (XTT); type: cell-based
T2 construct: The human FMS 3T3 cell line is a 3T3 cell line transfected with the full-length human Fms receptor; expressed in transfected cells; host or cells: NIH 3T3 (FMS 3T3 cell line, provided by Dr. Charles Sherr)
Description: A biological screening assay to search for novel stimulators of the Flt3 receptor was developed using NIH 3T3 cells transfected with expression vectors containing cDNA of murine and human Flt3 and the related Fms receptor. The mFlt3/Fms 3T3 cell line is a 3T3 cell line transfected with nucleic acid encoding a fusion protein consisting of the murine extracellular domain of the Flt3 receptor fused to the transmembrane and intracellular domains of the human Fms (provided by Dr. Ihor Lemischka, Princeton University, Princeton, N.J.). The Stk 3T3 cell line is a 3T3 cell line transfected with the full-length human Flt3 receptor (provided by Dr. Donald Small, Johns Hopkins University, Baltimore, Md.). […]
To create factor-dependence for receptor-transfected 3T3 cells, growth conditions were compromised to permit only ligands to rescue cells from death. […] Viable cells were quantitated after 3-5 days by XTT (2,3-bis[Methoxy-4-nitro-5sulfophenyl]-2H-tetrazolium-5 carboxanilide inner salt) (Sigma, St. Louis, Mo.) (Roehm et al., supra). Relative activity (units/ml) and specific activity (units/mg) are defined as the reciprocal dilution at which half-maximal stimulation of cells was detected. […]

untransfected 3T3 cells = assay: untransfected parent 3T3 control cells (XTT); type: cell-based; conditions: Example 5 serum-free conditions
Protocol: Specifically, 3T3 cells cultured in tissue culture plates (Becton Dickinson Labware, Lincoln Park, N.J.) were removed from the plates by washing cells twice in Hank's buffered saline solution (HBSS; Gibco Laboratories, Grand Island, N.Y.). Non-enzymatic cell dissociation buffer (Gibco) was added for 15 minutes at room temperature. The resulting cells were washed in medium. FLT3 3T3 cells were cultured at a final concentration of 3,000 cells per well in a volume of 100 μL of serum-defined medium containing […] rhIL1-α, 10% AIMV (Gibco, Grand Island, N.Y.) and 90% Dulbecco's modification of Eagle's medium (DMEM; Gibco) in 96 well plates. […] Proliferation and cell survival was quantitated by addition of XTT (2, 3-bis[Methoxy-4-nitro-5sulfophenyl]-2H-tetrazolium-5 carboxanilide inner salt) (Diagnostic Chemicals Ltd, Charlottetown, Prince Edward Island, Canada), which is a […] cleaved by actively respiring cells (Roehm et al., J. Immunol. Methods 142: 257-265, 1991). Proliferation and cell survival was quantitated spectrophotometrically using a Vmax kinetic plate reader (Molecular Devices Corp., Mountain View, Calif.), and recorded as either relative activity (units/mL) or as specific activity (units/mg). One unit of biological activity was defined as the reciprocal dilution at which half-maximal stimulation of cells is detected. […]

[4] = target: T3, murine extracellular domain of the Flt3 receptor fused to the transmembrane and intracellular domains of the human Fms (UniProt P07333+Q00342, A795S/A899S/C564L/C654D/C793H/C831G/D601N/D652H/D673E/D898N/DEL545-556/DEL576-597/DEL711-780/E609N/E612Q/E649S/E789R/E803A/E806A/E865D/F571P/F692T/F788L/F807S/G637D/G866C/H565Y/H671Q/H824N/I560L/I563L/I633L/I640L/I867V/I870V/INS558VACMSIMALLLL/INS573QVRWKII/INS599GNSYTFIDPTQLP/INS709AMLGPSLSPGQDPEGGVDYKNIHLEKKYVRRDSGFSSQGVDTYVEMRPVSTSSNDSFSEQDLD/K569Q/K650T/K800Q/K826H/K871Q/L602E/L684H/L690V/L783G/L815V/L840M/L863I/M626V/M665I/N627E/N784R/N900K/P896L/Q570K/Q641K/R572K/R624K/R708A/R848K/S619A/S634G/S639V/S653A/S685G/S706R/S809N/S841N/S844N/T636E/T667S/T787E/V561L/V616T/V638A/V785P/V811I/V822L/V828A/V846I/V889L/Y631F/Y689L/Y703F/Y796S); assay: mFlt3/Fms 3T3 biological screening assay (XTT); type: cell-based
T3 construct: consisting of the murine extracellular domain of the Flt3 receptor fused to the transmembrane and intracellular domains of the human Fms; expressed in transfected cells; host or cells: NIH 3T3 (mFlt3/Fms 3T3 cell line, provided by Dr. Ihor Lemischka)
T3 sequence (Q00342+P07333 with tags, fused parts or gaps Q00342:DEL545-556/Q00342:INS558VACMSIMALLLL/Q00342:I560L/Q00342:V561L/Q00342:I563L/Q00342:C564L/Q00342:H565Y/Q00342:K569Q/Q00342:Q570K/Q00342:F571P/Q00342:R572K/Q00342:INS573QVRWKII/Q00342:DEL576-597/Q00342:INS599GNSYTFIDPTQLP/Q00342:D601N/Q00342:L602E/Q00342:E609N/Q00342:E612Q/Q00342:V616T/Q00342:S619A/Q00342:R624K/Q00342:M626V/Q00342:N627E/Q00342:Y631F/Q00342:I633L/Q00342:S634G/Q00342:T636E/Q00342:G637D/Q00342:V638A/Q00342:S639V/Q00342:I640L/Q00342:Q641K/Q00342:E649S/Q00342:K650T/Q00342:D652H/Q00342:S653A/Q00342:C654D/Q00342:M665I/Q00342:T667S/Q00342:H671Q/Q00342:D673E/Q00342:L684H/Q00342:S685G/Q00342:Y689L/Q00342:L690V/Q00342:F692T/Q00342:Y703F/Q00342:S706R/Q00342:R708A/Q00342:INS709AMLGPSLSPGQDPEGGVDYKNIHLEKKYVRRDSGFSSQGVDTYVEMRPVSTSSNDSFSEQDLD/Q00342:DEL711-780/Q00342:L783G/Q00342:N784R/Q00342:V785P/Q00342:T787E/Q00342:F788L/Q00342:E789R/Q00342:C793H/Q00342:A795S/Q00342:Y796S/Q00342:K800Q/Q00342:E803A/Q00342:E806A/Q00342:F807S/Q00342:S809N/Q00342:V811I/Q00342:L815V/Q00342:V822L/Q00342:H824N/Q00342:K826H/Q00342:V828A/Q00342:C831G/Q00342:L840M/Q00342:S841N/Q00342:S844N/Q00342:V846I/Q00342:R848K/Q00342:L863I/Q00342:E865D/Q00342:G866C/Q00342:I867V/Q00342:I870V/Q00342:K871Q/Q00342:V889L/Q00342:P896L/Q00342:D898N/Q00342:A899S/Q00342:N900K): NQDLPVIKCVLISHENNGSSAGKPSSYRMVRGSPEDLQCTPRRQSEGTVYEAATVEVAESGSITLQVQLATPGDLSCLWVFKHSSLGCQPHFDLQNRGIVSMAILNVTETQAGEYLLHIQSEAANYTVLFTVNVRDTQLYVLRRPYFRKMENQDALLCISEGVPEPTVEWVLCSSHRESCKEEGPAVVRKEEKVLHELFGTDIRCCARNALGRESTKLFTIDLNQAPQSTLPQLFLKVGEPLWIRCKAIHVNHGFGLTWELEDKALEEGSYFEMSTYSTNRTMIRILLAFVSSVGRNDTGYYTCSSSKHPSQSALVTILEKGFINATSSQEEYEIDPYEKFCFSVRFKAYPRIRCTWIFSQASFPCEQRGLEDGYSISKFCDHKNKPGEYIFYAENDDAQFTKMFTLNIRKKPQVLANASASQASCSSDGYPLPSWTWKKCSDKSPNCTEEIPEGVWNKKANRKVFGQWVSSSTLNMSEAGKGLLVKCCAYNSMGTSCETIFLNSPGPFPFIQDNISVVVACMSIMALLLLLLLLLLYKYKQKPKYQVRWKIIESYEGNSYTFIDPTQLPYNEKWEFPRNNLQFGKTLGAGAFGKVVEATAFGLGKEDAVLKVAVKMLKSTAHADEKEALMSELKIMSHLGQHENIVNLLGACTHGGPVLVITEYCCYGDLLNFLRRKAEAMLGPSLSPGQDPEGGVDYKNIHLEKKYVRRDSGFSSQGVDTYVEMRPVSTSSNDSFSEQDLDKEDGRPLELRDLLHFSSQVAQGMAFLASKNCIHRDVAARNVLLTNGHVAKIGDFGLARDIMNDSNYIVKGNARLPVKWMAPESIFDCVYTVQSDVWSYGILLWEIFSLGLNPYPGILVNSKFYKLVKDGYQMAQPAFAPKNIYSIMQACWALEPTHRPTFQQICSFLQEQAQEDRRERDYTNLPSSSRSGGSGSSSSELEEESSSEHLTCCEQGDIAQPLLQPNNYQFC
Description: A biological screening assay to search for novel stimulators of the Flt3 receptor was developed using NIH 3T3 cells transfected with expression vectors containing cDNA of murine and human Flt3 and the related Fms receptor. The mFlt3/Fms 3T3 cell line is a 3T3 cell line transfected with nucleic acid encoding a fusion protein consisting of the murine extracellular domain of the Flt3 receptor fused to the transmembrane and intracellular domains of the human Fms (provided by Dr. Ihor Lemischka, Princeton University, Princeton, N.J.). The Stk 3T3 cell line is a 3T3 cell line transfected with the full-length human Flt3 receptor (provided by Dr. Donald Small, Johns Hopkins University, Baltimore, Md.). The human FMS 3T3 cell line is a 3T3 cell line transfected with the full-length human Fms receptor (provided by Dr. Charles Sherr, Saint Jude Children's Research Hospital, Memphis, Tenn. Parent 3T3 cells were purchased from American Type Culture Collection (“ATCC”; Manassas, Va.). Receptor-transfected cells contained Neo resistance genes and were maintained in medium containing 750 µg/ml of G418 (Life Technologies, Rockville, Md.).
To create factor-dependence for receptor-transfected 3T3 cells, growth conditions were compromised to permit only ligands to rescue cells from death. To do this, 3T3 cell lines were assayed in 96 well plates (Becton Dickinson Labware, Lincoln Park, N.J.) containing 3,000 cells in 100 μL of serum-free medium consisting of 10% AIMV (Life Technologies) and 90% DMEM. In each experiment, samples were serially diluted two-fold across rows starting at a 1:10 dilution. Viable cells were quantitated after 3-5 days by XTT (2,3-bis[Methoxy-4-nitro-5sulfophenyl]-2H-tetrazolium-5 carboxanilide inner salt) (Sigma, St. Louis, Mo.) (Roehm et al., supra). Relative activity (units/ml) and specific activity (units/mg) are defined as the reciprocal dilution at which half-maximal stimulation of cells was detected.

T2 sequence (P07333 20-972): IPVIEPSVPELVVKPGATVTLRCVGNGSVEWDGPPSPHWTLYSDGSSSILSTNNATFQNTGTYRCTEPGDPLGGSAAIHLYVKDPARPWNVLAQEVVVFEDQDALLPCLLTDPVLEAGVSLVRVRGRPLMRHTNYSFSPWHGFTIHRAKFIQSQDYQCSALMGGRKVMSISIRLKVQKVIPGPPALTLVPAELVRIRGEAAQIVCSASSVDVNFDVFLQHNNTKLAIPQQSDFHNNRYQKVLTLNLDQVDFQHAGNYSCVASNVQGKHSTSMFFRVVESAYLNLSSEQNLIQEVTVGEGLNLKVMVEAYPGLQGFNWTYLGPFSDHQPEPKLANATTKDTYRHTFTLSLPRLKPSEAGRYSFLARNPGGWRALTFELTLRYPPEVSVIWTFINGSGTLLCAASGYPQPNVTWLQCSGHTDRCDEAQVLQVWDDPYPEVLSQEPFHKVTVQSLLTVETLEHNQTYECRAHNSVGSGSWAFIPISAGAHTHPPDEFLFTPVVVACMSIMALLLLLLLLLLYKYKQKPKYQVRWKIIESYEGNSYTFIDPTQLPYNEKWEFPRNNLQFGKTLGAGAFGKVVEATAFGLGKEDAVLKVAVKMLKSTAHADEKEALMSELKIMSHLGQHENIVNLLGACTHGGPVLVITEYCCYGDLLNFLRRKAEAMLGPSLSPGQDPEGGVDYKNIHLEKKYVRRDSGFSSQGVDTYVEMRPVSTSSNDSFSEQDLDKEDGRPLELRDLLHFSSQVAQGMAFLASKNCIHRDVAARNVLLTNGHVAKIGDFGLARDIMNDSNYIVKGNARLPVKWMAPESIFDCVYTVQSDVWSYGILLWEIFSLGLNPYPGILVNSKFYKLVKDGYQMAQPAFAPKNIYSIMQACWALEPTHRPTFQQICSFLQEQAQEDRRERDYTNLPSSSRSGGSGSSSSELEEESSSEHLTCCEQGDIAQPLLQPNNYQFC

For OC[C@H]1O[C@H](O[C@H]2O[C@H](CO)[C@@H](O)[C@H](O)[C@H]2O)[C@H](O)[C@@H](O)[C@@H]1O [α,α-trehalose], the “potency relative to mannose” value (Dl-FRIL) is listed as 3.6 fold.

For O=c1[nH]cc(F)c(=O)[nH]1 [5-FU, 5-fluorouracil], the “reduction of bone marrow cellularity” value [1] is listed as greater than 90% and the “deaths from a single dose” value [2] is listed as “No mice died”.

B1: M-CSF: Recombinant human M-CSF, ligand of the Fms receptor (protein)
chain: EEVSEYCSHMIGSGHLQSLQRLIDSQMETSCQITFEFVDQEQLKDPVCYLKKAFLLVQDIMEDTMRFRDNTPNAIAIVQLQELSLRLKSCFTKDYEEHDKACVRTFYETPLQLLEKVKNVFNETKNLLDKDWNIFSKNCNNSFAECSSQDVVTKPDCN
With B1 the “response of Fms 3T3 cells” value [3] was “responded to M-CSF in a dose-responsive manner”, the “response of parent untransfected 3T3 cells” value (untransfected 3T3 cells) was “Neither the mFlt3/Fms 3T3 cells nor the parent untransfected 3T3 cells responded” and the “response of mFlt3/Fms 3T3 cells” value [4] was “Neither the mFlt3/Fms 3T3 cells nor the parent untransfected 3T3 cells responded”.
